Assay results published in patent US8318947B2, “Comestible compositions comprising high potency savory flavorants, and processes for producing them” (Senomyx, Inc., priority 2006, dated 2012).

Columns and labels:
[1] = test system: human panelists, savory taste; assay: Savory taste test with trained human panel (difference from reference); assay type: in vivo
Experimental: General Panelist Selection: Basic screening of sensory taste testers: Potential panelists were tested for their abilities to rank and rate intensities of solutions representing the five basic tastes. Panelists ranked and rated intensity of five different concentrations of each of the five following compounds: sucrose (sweet), sodium chloride (salty), citric acid (sour), caffeine (bitter), and monosodium glutamate (savory). In order to be selected for participation in testing, panelists needed to correctly rank and rate samples for intensity, with a reasonable number of errors.
Preliminary Taste Tests: The panelists selected in the above procedure were deemed qualified for performing Preliminary Taste Testing procedures. The preliminary taste tests are used to evaluate new compounds for intensity of basic tastes and off-tastes. A small group of panelists (n=5) taste approximately 5 concentrations of the compound (range typically between 1-100 μM, in half-log cycles, e.g., 1, 3, 10, 30, and 100 μM) in water and in a solution of 12 mM MSG to evaluate enhancement. Panelists rate the five basic tastes (sweet, salty, sour, bitter, and savory) as well as off-tastes (such as chemical, metallic, sulfur) on a labeled magnitude scale. Samples are served in 10 mL portions at room temperature. The purpose of the test is to determine the highest concentration at which there is no objectionable off-taste, and determine if obvious savory taste or enhancement of savory taste exists at any of the concentrations tested.
Trained Panelist Selection: A trained expert panel was used to further evaluate compounds that had been tested with the preliminary taste test.
Panelists for the trained panel were selected from the larger group of qualifying taste panelists. Panelists were further trained on savory taste by ranking and rating experiments using MSG and IMP combinations. Panelists completed a series of ranking, rating, and difference from reference tests with savory solutions. In ranking and rating experiments, panelists evaluated easy MSG concentrations (0, 6, 18, 36 mM) and more difficult MSG concentrations (3, 6, 12, 18 mM MSG) in water.
Compound testing with Trained Panel: Compounds tested by the trained panel were evaluated in difference from reference experiments. […] Test samples were solutions with varying amounts of MSG, IMP, and the compound. Typically, each session compares the reference sample to numerous test samples. […] Compounds were tested against the reference in samples with and without 12 mM MSG. All samples were presented in 10 ml volumes at room temperature. Two sessions were completed for each compound tested to evaluate panel reproducibility.

[2] = test system: human subjects, savory taste; assay: Human taste test of low sodium tomato juice; assay type: in vivo; details: 3 μM cpd; 400 mg Na/8 oz tomato juice
Experimental: Human taste tests were conducted in order to evaluate the ability of the compounds of the invention to enhance the savory flavor of low sodium tomato juice (which naturally comprises some monosodium glutamate).
The final tomato juice samples for taste testing were prepared so as to comprise 90% (by volume) pre-made low sodium tomato juice stock (pH 4.2, 80˜100 mg Na/8 oz, 16 mM of naturally occurring MSG), 5% (by volume) of stock solutions formulated to produce selected final levels of sodium of final juice, and 5% (by volume) of a stock solution of the compound of the invention. Selected oxalamide compounds of the invention were dissolved in LSB (low sodium phosphate buffer), to provide a stock solution at 20 times the desired final concentration in the final tomato juice. The desired final sodium concentration of the final tomato juice was most experiments 73.6 mM (400 mg sodium in 8 oz. of juice), therefore a stock solution of NaCl was made at 1.48 M NaCl. The pH for the stock solutions was adjusted to 4.2 using a 1 M citric acid solution, and the stock solutions were sonicated to ensure the additive compounds were completely dissolved. […]
Scores were averaged across panelists and sessions, and evaluated using a 2-way ANOVA (factors: panelists and samples) and Duncan's multiple comparison test (alpha=0.05) to determine significant differences in intensity ratings.

For `COc1cc(C)ccc1CNC(=O)C(=O)NCCc1ccc(C)cn1` [Example 30, N^1-(2-methoxy-4-methylbenzyl)-N^2-(2-(5-methylpyridin-2-yl)ethyl)oxalamide], which “Taste Data: cpd concentration as strong as 12 mM MSG” value ([1]; compound alone, without MSG) is on record?
The value was 0.3 μM cpd as strong as.

What about the “Taste Data: cpd concentration at which 12 mM MSG + cpd is as strong as 12 mM MSG + 100 μM IMP” value ([1]; with 12 mM MSG, reference 12 mM MSG + 100 μM IMP) of the same compound?
The value was 12 mM MSG + 0.3 μM cpd as.

What about the melting point of the same compound?
The melting point was 133.5 to 134 °C.

And the “Enhancement of the savory taste of 16 mM glutamate (naturally existing) in low sodium tomato juice” value [2]?
The value was “by 1.8 to 1.9-fold”.
